Data from the NIST ThermoML archive (doi:10.1016/j.jct.2004.09.021).

Tests used:
[1] = xn = mol fraction of the nth substance listed; conditions: 101 kPa, Liquid
[2] = refractive index (Na D-line) (dimensionless); xn = mol fraction of the nth substance listed; conditions: 101 kPa, Liquid

COc1ccccc1 [anisole] + CCCCCCCCCCCC
Conditions	mass density, 293.15 K [kg/m3]	mass density, 298.15 K [kg/m3]	mass density, 303.15 K [kg/m3]	refractive index, 293.15 K	refractive index, 298.15 K	refractive index, 303.15 K	viscosity, 293.15 K [mPa·s]	viscosity, 298.15 K [mPa·s]	viscosity, 303.15 K [mPa·s]
[1], x1 = 0.0992	760.26	756.57	752.87	–	–	–	1.413	1.312	1.197
[1], x1 = 0.2015	773.6	769.83	766.07	–	–	–	1.341	1.248	1.138
[1], x1 = 0.2969	787.75	783.97	780.1	–	–	–	1.272	1.181	1.081
[1], x1 = 0.4102	807.23	803.3	799.35	–	–	–	1.19	1.104	1.003
[1], x1 = 0.4898	822.92	818.98	814.93	–	–	–	1.138	1.052	0.9616
[1], x1 = 0.6099	850.24	846.1	841.96	–	–	–	1.074	0.9944	0.9147
[1], x1 = 0.702	875.28	871.03	866.78	–	–	–	1.039	0.9639	0.8922
[1], x1 = 0.8023	907.62	903.24	898.86	–	–	–	1.032	0.9569	0.8858
[1], x1 = 0.8976	944.56	940.04	935.51	–	–	–	1.046	0.9718	0.9132
[1], x1 = 1	993.81	989.15	984.42	–	–	–	1.085	1.017	0.9285
[2], x1 = 0.106	–	–	–	1.4239	1.4199	1.4163	–	–	–
[2], x1 = 0.208	–	–	–	1.4289	1.4251	1.4213	–	–	–
[2], x1 = 0.29	–	–	–	1.4335	1.4298	1.4263	–	–	–
[2], x1 = 0.391	–	–	–	1.4406	1.4371	1.4339	–	–	–
[2], x1 = 0.4886	–	–	–	1.4488	1.4455	1.4426	–	–	–
[2], x1 = 0.607	–	–	–	1.4601	1.457	1.4545	–	–	–
[2], x1 = 0.7055	–	–	–	1.4707	1.4677	1.4654	–	–	–
[2], x1 = 0.7845	–	–	–	1.4809	1.4779	1.4756	–	–	–
[2], x1 = 0.88	–	–	–	1.4959	1.493	1.4908	–	–	–
[2], x1 = 1	–	–	–	1.5161	1.5141	1.5129	–	–	–

COc1ccccc1 [anisole] + CCCCCCCC
Conditions	mass density, 293.15 K [kg/m3]	mass density, 298.15 K [kg/m3]	mass density, 303.15 K [kg/m3]	refractive index, 293.15 K	refractive index, 298.15 K	refractive index, 303.15 K	viscosity, 293.15 K [mPa·s]	viscosity, 298.15 K [mPa·s]	viscosity, 303.15 K [mPa·s]
[1], x1 = 0.1031	722.82	718.75	714.63	–	–	–	0.5523	0.5195	0.4917
[1], x1 = 0.2253	749.02	744.78	740.6	–	–	–	0.568	0.5349	0.5042
[1], x1 = 0.3001	766.32	762.01	757.77	–	–	–	0.5825	0.5446	0.5166
[1], x1 = 0.4	791.02	786.68	782.37	–	–	–	0.6136	0.5719	0.5434
[1], x1 = 0.5092	820.49	816.09	811.7	–	–	–	0.6541	0.6157	0.5779
[1], x1 = 0.5998	847.08	842.65	838.17	–	–	–	0.7026	0.6542	0.6162
[1], x1 = 0.6977	878.22	873.72	869.19	–	–	–	0.7639	0.7153	0.6729
[1], x1 = 0.7998	913.74	909.15	904.54	–	–	–	0.8456	0.7845	0.7453
[1], x1 = 0.8975	950.96	946.32	941.63	–	–	–	0.9497	0.8917	0.8289
[1], x1 = 1	993.81	989.15	984.42	–	–	–	1.085	1.017	0.9285
[2], x1 = 0.106	–	–	–	1.405	1.4029	1.4004	–	–	–
[2], x1 = 0.231	–	–	–	1.4158	1.4136	1.4114	–	–	–
[2], x1 = 0.307	–	–	–	1.423	1.4208	1.4187	–	–	–
[2], x1 = 0.3991	–	–	–	1.4324	1.4303	1.4283	–	–	–
[2], x1 = 0.503	–	–	–	1.444	1.4419	1.44	–	–	–
[2], x1 = 0.6	–	–	–	1.4562	1.454	1.4522	–	–	–
[2], x1 = 0.69	–	–	–	1.4683	1.4661	1.4643	–	–	–
[2], x1 = 0.796	–	–	–	1.4838	1.4815	1.4797	–	–	–
[2], x1 = 0.8822	–	–	–	1.4973	1.495	1.4933	–	–	–
[2], x1 = 1	–	–	–	1.5161	1.5141	1.5129	–	–	–

CCCCCCCCC [nonane] + COc1ccccc1
x2 = 0
Conditions	mass density, 293.15 K [kg/m3]	mass density, 298.15 K [kg/m3]	mass density, 303.15 K [kg/m3]	refractive index, 293.15 K	refractive index, 298.15 K	refractive index, 303.15 K	viscosity, 293.15 K [mPa·s]	viscosity, 298.15 K [mPa·s]	viscosity, 303.15 K [mPa·s]
[1]	717.59	713.71	709.81	–	–	–	0.7136	0.6715	0.6307
[2]	–	–	–	1.404	1.4027	1.4002	–	–	–

COc1ccccc1 [anisole] + CCCCCCCCCC
Conditions	mass density, 293.15 K [kg/m3]	mass density, 298.15 K [kg/m3]	mass density, 303.15 K [kg/m3]	refractive index, 293.15 K	refractive index, 298.15 K	refractive index, 303.15 K	viscosity, 293.15 K [mPa·s]	viscosity, 298.15 K [mPa·s]	viscosity, 303.15 K [mPa·s]
[1], x1 = 0.0846	742.22	738.35	734.48	–	–	–	0.8966	0.8362	0.7797
[1], x1 = 0.173	756.19	752.25	748.48	–	–	–	0.8837	0.8195	0.7679
[1], x1 = 0.2574	770.86	766.87	763.13	–	–	–	0.865	0.8019	0.7542
[1], x1 = 0.3675	792.19	788.11	784.45	–	–	–	0.8512	0.7887	0.7392
[1], x1 = 0.4546	811.1	806.89	803.36	–	–	–	0.8492	0.7883	0.7322
[1], x1 = 0.5661	838.25	833.93	830.59	–	–	–	0.8679	0.801	0.7387
[1], x1 = 0.6583	863.76	859.36	856.21	–	–	–	0.8896	0.8198	0.7585
[1], x1 = 0.7725	900.09	895.52	892.66	–	–	–	0.9343	0.8683	0.799
[1], x1 = 0.8798	940.35	935.67	933.11	–	–	–	0.9984	0.9296	0.8558
[1], x1 = 1	993.81	989.15	984.42	–	–	–	1.085	1.017	0.9285
[2], x1 = 0.1071	–	–	–	1.4198	1.4165	1.4131	–	–	–
[2], x1 = 0.1979	–	–	–	1.425	1.4218	1.4186	–	–	–
[2], x1 = 0.31	–	–	–	1.4328	1.4297	1.4269	–	–	–
[2], x1 = 0.409	–	–	–	1.4405	1.4374	1.4349	–	–	–
[2], x1 = 0.508	–	–	–	1.4495	1.4467	1.4443	–	–	–
[2], x1 = 0.6	–	–	–	1.4591	1.4563	1.4541	–	–	–
[2], x1 = 0.686	–	–	–	1.4694	1.4667	1.4645	–	–	–
[2], x1 = 0.789	–	–	–	1.4831	1.4803	1.4784	–	–	–
[2], x1 = 0.887	–	–	–	1.4973	1.4947	1.4927	–	–	–
[2], x1 = 1	–	–	–	1.5161	1.5141	1.5129	–	–	–
